Experimental data reported in patent publication US12486218B2, “Compounds advantageous in the treatment of central nervous system diseases and disorders” (AurimMed Pharma, Inc., priority 2008, dated 2025).

How the values were obtained:
[1] = system: type II SMA fibroblasts (GM03813); test: SMN protein localization, gem counting in type II SMA fibroblasts; assay type: cell-based; conditions: 100 nM-10 μM, 5 days
Procedure: To validate the SMN2 promoter and exon 7 screens, the effects of compounds H, H (acid form), AY, F, BX, and BY were evaluated on the basis of expression and localization of SMN protein in type II SMA fibroblasts (GM03813). In a normal cell, SMN protein localized within the nucleus to discreet foci known as gems. In SMN-deficient SMA cells, the number of gems is greatly diminished. Although the function of gems is unknown, it is believed that they are somehow involved in the snRNP assembly function of SMN. Gem counting can, therefore, be considered an assay for SMN function.
GM03813 fibroblasts were treated with different doses (100 nM-10 μM) of compounds H, H (acid form), AY, F, BX, and BY for 5 days. SMN immunostaining was then completed on these cells and the number of gems was counted in 100 randomly-selected nuclei. […] In fact, the gem counts at the highest dose of compound H approach those observed for carrier fibroblasts (GM03814). When compared against treatment with 1 μM D157495—a D156844 derivative, all of the compounds tested performed as well as or, even better than D157495.

[2] = system: rat dopaminergic N27 cells; test: N27 protection assay against oxidative stress (H2O2 or MPP+; MTT and LDH); assay type: cell-based; conditions: drug 24 hours before 200 μM H2O2 or 640 μM MPP+
Source text: FIGS. 20A-25D data are shown illustrating neuroprotective and neuroregenerative effects observed in rat dopaminergic N27 cells. Rat dopaminergic N27 cells are commonly used in in vitro and in vivo model systems for studying Parkinson's disease. Parkinson's disease is a neurodegenerative disorder of the central nervous system that affects more than 6 million people worldwide. The motor symptoms of Parkinson's disease result from the death of dopamine generating cells in the substantia nigra, a region of the midbrain.
The N27 rat dopaminergic neuron cell line was harvested from E12 rat mesencephalic tissue and was transfected with SV40 to immortalize the cell line. The N27 cell line, when injected into the striata of 6-hydroxydopamine-lesioned rats (an animal model of PD) caused a time-dependent improvement in neurological deficits. This immortalized cell line has been carefully characterized in studies of dopamine biosynthesis, neurotoxicity and used as a dopaminergic neuron model studies.
The N27 in vitro Parkinson's disease model included a test of cell viability and cell toxicity in response to exposure to oxidative stress (e.g., either 200 μM H2O2 or 640 μM MPP+).
Cell viability was tested using the MTT assay. The MTT assay is a colorimetric analysis based on the activities of mitochondrial NAD(P)H-dependent cellular oxidoreductase enzymes. These enzymes are capable of reducing the tetrazolium dye, MTT [3-(4,5-dimethylthiazol-2-yl)-2,5-diphenyltetrazolium] bromide, to an insoluble formazan (purple). […] More viable cells equal more accumulation of the insoluble formazan dye.
Cell toxicity was tested using the […] (LDH) assay. Cells that are stressed secrete LDH. In general, the more cells are stressed, the LDH they secrete into their media. The LDH assay is a reliable colorimetric assay to measure quantitatively the […] (LDH) that is released into the cell culture media from damaged cells as a biomarker for cytotoxicity and cytolysis.
FIGS. 20A-25D present data from two types of assays: protection and recovery assays. In the protection assays, the drug candidate was applied to the cells at various concentrations for 24 hours, followed by the exposure to oxidative stress (either 200 μM H2O2 or 640 μM MPP+) for measuring neuroprotective effect. H2O2 provides a broad measure of oxidative stress, while MPP+ gives a more specific oxidative stress to dopaminergic neurons.
The protection assay results are shown in panels A-C of FIGS. 20-25 In the recovery assays, the cells were first damaged by exposure to H2O2 and then various concentrations of the drug were applied to the cells. The results for the recovery assays are shown the D panels of FIGS. 20-25.

[3] = system: mice; test: Mouse formalin pain model; assay type: in vivo; conditions: 76 mg/kg i.p., at 0.5 hours
[4] = in vivo; conditions: mouse, ip
Procedure: (§1) The animal testing was performed according to methods known in the relevant art.

[5] = system: mice; test: 6 Hz (minimal clonic seizure) model, mice i.p.; assay type: in vivo; conditions: for 6 Hz (32 mA), fraction of animals: mice i.p.; for activity in the 6 Hz (minimal clonic seizure) model: mice, at 100 mg/kg
[6] = system: rats; test: MES test, rats p.o.; assay type: in vivo; conditions: at 30 mg/kg
[7] = system: mice; test: Maximal Electroshock Seizure (MES) test, mice i.p.; assay type: in vivo; conditions: for activity in the MES test: at 100 mg/kg; for ED50: Mus musculus, ip
[8] = system: mice; test: Effects observed in mice after i.p. injection (CNS stimulation, diarrhea); assay type: in vivo; conditions: for effect produced in the mice: 30 minutes after i.p. injection of 100 mg/kg
Procedure: In addition, two further tertiary amide compounds, BJ and BT, produced diarrhea in the mice 30 minutes after i.p. injection of 100 mg/kg of each.

[9] = system: mice; test: Subcutaneous Metrazol Seizure threshold (s.c. MET) test, mice i.p.; assay type: in vivo; conditions: for activity in the s.c. MET test: at 300 mg/kg; for ED50: Mus musculus
[10] = system: SMN2 promoter; test: SMN2 promoter β-lactamase reporter assay in NSC34 motor neuron-like cells; assay type: cell-based; conditions: for SMN2 promoter activity: treatment for 19 hours at a concentration of 1 μM
Procedure: FIG. 30 illustrates a screen for SMN2 expression of a number of compounds described herein.
SMN2 promoter activity was measured using NSC34 motor neuron-like cells stably transfected with a β-lactamase (BLA) reporter gene under the control of a 3.4-kilobase fragment of the SMN2 promoter. D156844 was used as a positive control for this assay.

[11] = system: rats; test: Pilocarpine-induced Status Epilepticus in Rats (prevention; intervention @ 30 min); conditions: Rattus norvegicus
Procedure: The animal testing was performed using the protocols developed in the Anticonvulsant Screening Program (ASP) at the National Institute of Neurological Disorders and Stroke (NINDS), National Institutes of Health (NIH).

[12] = system: C3A hepatocyte cells; test: ACTIVTox Cell Proliferation Assay; assay type: cell-based; conditions: at a concentration of 100 μM
[13] = system: mice; test: Corneal kindled mouse model; assay type: in vivo; conditions: mice i.p.; 100 mg/kg @ 0.5 hr
[14] = system: mice; test: Minimal motor impairment (MID50), mice i.p.
Procedure: as §1

[15] = system: C3A hepatocyte cells; test: ACTIVTox LDH release assay; assay type: cell-based
Procedure: Compounds A, I, H, and F were tested by Stem Cell Innovations, Inc. (Houston, TX) in their ACTIVTox® Human Liver Cell-based assays (using C3A hepatocyte cells). Specifically, the compounds were tested in the LDH release assay, which determines the release of Lactate DeHydrogenase (an indicator of cell death) at various concentrations of test compound.
A concentration of 100 µM of test compound is a much higher level of exposure to liver cells than would ever be expected under physiological conditions. Therefore, using 100 μM as a standard test concentration (for comparative purposes), the ratio of the absorbance (which measures the level of LDH release) resulting from the presence of the test compound versus the negative control is a value known as the “average (or mean) fold control” (Average Fold Control=Average of Absorbance/Average of Negative Control).

[16] = read-out: Prevention, Protection

In the case of CC(CC(=O)O)c1ccc(OC(F)(F)F)cc1 (racemic) [H (acid form)], the “gem counts (SMN immunostaining, 100 nuclei)” value [1] is reported as “increase gem counts in a dose-dependent manner” and the “relative potency in increasing gem counts” value [1] is reported as “most potent”.
For C[C@@H](CC(N)=O)c1ccc(OC(F)(F)F)cc1 (single isomer, unassigned) [BY, S-(+)-3-(4-Trifluoromethoxy-phenyl)butyramide], the “neuroprotective effect against H2O2 and MPP+ oxidative stresses (MTT and LDH assays)” value [2] was “potent dose-dependent neuroprotective effects”, the “pain response, acute phase” value [3] was 53 % of the control and the “pain response, inflammatory phase” value [3] was 24 % of the control. For the same compound, the TD50 at 0.25 hr [4] was 104 mg/kg, the “gem counts (SMN immunostaining, 100 nuclei)” value [1] was “increase gem counts in a dose-dependent manner” and the “6 Hz (32 mA), fraction of animals” value ([5]; 100 mg/kg @ 0.25 hr) was 1/4. The “6 Hz (32 mA), fraction of animals” value ([5]; 100 mg/kg @ 0.5 hr) was 2/4.
In the case of CCN(C)C(=O)CC(C)c1ccc(OC(F)(F)F)cc1 (centres unmarked) [BE, N-Ethyl-N-methyl-3-(4-trifluoromethoxy-phenyl)-butyramide], the “activity in the MES test” value [6] is reported as “activity”, the “MES, fraction of animals” value ([7]; mice i.p., 100 mg/kg @ 0.5 hr) is reported as 1/3 @ and the “activity in the MES test” value ([7]; mice) is reported as “activity”. For the same compound, the “6 Hz (32 mA), fraction of animals” value ([5]; 100 mg/kg @ 0.5 hr) was 2/4 @ 0.5 hr, and the CNS-stimulating effect observed ([8]; mice, 300 mg/kg i.p., 30 minutes after injection) was “tremors”.
With CC(CC(=O)N1CCCCC1)c1ccc(OC(F)(F)F)cc1 (centres unmarked) [BH, 1-Piperidin-1-yl-3-(4-trifluoromethoxy-phenyl)-butan-1-one] the “activity in the s.c. MET test” value ([9]; mice) was “activity”, the SMN2 promoter activity [10] was “increased SMN2 promoter activity” and the CNS-stimulating effect observed ([8]; mice, on injection) was “vocalization and hyperactivity”. The “duration of vocalization and hyperactivity” value ([8]; mice, on injection) was 5 to 6 min.
In the case of CC(CC(=O)N1CCN(C)CC1)c1ccc(OC(F)(F)F)cc1.Cl (centres unmarked) [BJ, 1-(4-Methyl-piperazin-1-yl)-3-(4-trifluoromethoxy-phenyl)-butan-1-one hydrochloride], the “activity in the MES test” value [6] is reported as “activity”, the “MES, fraction of animals” value ([7]; mice i.p., 100 mg/kg @ 0.25 hr) is reported as 2/3 @ and the “activity in the MES test” value ([7]; mice) is reported as “activity”. The “effect produced in the mice” value [8] was “diarrhea”.
With CC(CC(=O)N1CCCC(C(N)=O)C1)c1ccc(OC(F)(F)F)cc1 (centres unmarked) [BT, 1-[3-(4-Trifluoromethoxy-phenyl)-butyryl]-piperidine-3-carboxylic acid amide] the “effect produced in the mice” value [8] was “diarrhea”.
For CCC(CC(N)=O)c1ccc(C(F)(F)F)cc1 (centres unmarked) [Compound AA, 3-(4-Trifluoromethylphenyl)-pentanamide], the “activity in the MES test” value [6] was “activity”, the ED50 ([7]; mice i.p., @ 0.5 hrs) was 86.6 mg/kg and the “activity in the MES test” value ([7]; mice) was “activity”. The “neuroprotective effect against H2O2 and MPP+ oxidative stresses (MTT and LDH assays)” value [2] was “statistically significant, dose-dependent neuroprotection”, the ED50 ([9]; mice i.p., @ 0.5 hrs) was 149 mg/kg and the “activity in the s.c. MET test” value ([9]; mice) was “activity”. For the same compound, the TD50 at 0.25 hr [4] was 142 mg/kg, the “activity in the 6 Hz (minimal clonic seizure) model” value [5] was “activity” and the “SMN2 promoter assay, particularly strong hits” value ([10]; NSC34 BLA reporter cells) was “particularly strong hits”. The “Promoter (SMN2 promoter test, summary YES/NO)” value ([10]; Table 13 summary) was “YES” and the SMN2 promoter activity [10] was “increased SMN2 promoter activity”.
For CC(CC(N)=O)c1ccc(N2CCOCC2)cc1 (centres unmarked) [Compound AY, 3-(4-Morpholin-4-yl-phenyl)-butyramide], the “gem counts (SMN immunostaining, 100 nuclei)” value [1] was “increase gem counts in a dose-dependent manner”, the “6 Hz (32 mA), fraction of animals” value ([5]; 100 mg/kg @ 1.0 hr) was 1/4 and the “activity in the 6 Hz (minimal clonic seizure) model” value [5] was “activity”. The SMN2 promoter activity [10] was “increased SMN2 promoter activity” and the responders at 600 mg/kg [11, 16] was 38%.
For CC(CC(N)=O)c1cccc(OC(F)(F)F)c1 (centres unmarked) [I, 3-[3-(trifluoromethoxy)-phenyl]butyramide], the “activity in the MES test” value [6] was “activity”, the ED50 ([7]; mice) was less than 100 mg/kg and the “MES, fraction of animals” value ([7]; mice i.p., 100 mg/kg @ 0.5 hr) was 3/3 @0.5,. The “MES, fraction of animals” value ([7]; mice i.p., 100 mg/kg @ 4.0 hr) was 3/3 @ 4.0 hr, the ED50 ([9]; mice, i.p.) was no more than 100 mg/kg and the “s.c. MET, fraction of animals” value ([9]; mice i.p., 100 mg/kg @ 0.5 hr) was 1/1 @0.5,. The “s.c. MET, fraction of animals” value ([9]; mice i.p., 100 mg/kg @ 4.0 hr) was 1/5 @ 4.0 hr, the “Cell Proliferation Assay, mean fold control” value [12] was 1.25 and the “toxicity to proliferating cells” value [12] was “non-toxic”. The “6 Hz (32 mA), fraction of animals” value ([5]; 50 mg/kg @ 0.25 hr) was 3/4, the “6 Hz (32 mA), fraction of animals” value ([5]; 50 mg/kg @ 0.5 hr) was 2/4 and the “6 Hz (32 mA), fraction of animals” value ([5]; 100 mg/kg @ 4.0 hr) was 2.0 and 1/4. The responders at 130 mg/kg ([11]; 0.5 h, read-out: Intervention @ 30 min, Protection) was 100%, the responders at 65 mg/kg [11, 16] was 86% and the “Corneal Kindled, Average seizure score” value [13] was “score is 0:”. For the same compound, the “Corneal Kindled, fraction of animals” value [13] was 4/4 @, the “MID50, fraction of animals” value ([14]; mice i.p., 100 mg/kg @ 0.5 hr) was 8/8 @0.50 hr, and the “MID50 (median minimal motor impairment dose)” value ([14]; mice, i.p.) was less than 100 mg/kg. For the same compound, the “LDH release, mean fold control” value ([15]; at 100 μM, C3A hepatocyte cells, value below 1.75 = no cyto- or hepatotoxic activity) was 1.03 and the “cyto- or hepatotoxicity, ACTIVTox data” value ([15]; at physiologically relevant concentrations (i.e., <100 µM)) was “not cyto- or hepatotoxic”.
